Results: BindingDB's records for doi:10.1016/0006-8993(87)90040-0 (St, Marianna University School of Medicine, 1987)

The compounds below were run against D(2) dopamine receptor (Rattus norvegicus, UniProt P61169).
Chain of D(2) dopamine receptor (P61169 whole entry): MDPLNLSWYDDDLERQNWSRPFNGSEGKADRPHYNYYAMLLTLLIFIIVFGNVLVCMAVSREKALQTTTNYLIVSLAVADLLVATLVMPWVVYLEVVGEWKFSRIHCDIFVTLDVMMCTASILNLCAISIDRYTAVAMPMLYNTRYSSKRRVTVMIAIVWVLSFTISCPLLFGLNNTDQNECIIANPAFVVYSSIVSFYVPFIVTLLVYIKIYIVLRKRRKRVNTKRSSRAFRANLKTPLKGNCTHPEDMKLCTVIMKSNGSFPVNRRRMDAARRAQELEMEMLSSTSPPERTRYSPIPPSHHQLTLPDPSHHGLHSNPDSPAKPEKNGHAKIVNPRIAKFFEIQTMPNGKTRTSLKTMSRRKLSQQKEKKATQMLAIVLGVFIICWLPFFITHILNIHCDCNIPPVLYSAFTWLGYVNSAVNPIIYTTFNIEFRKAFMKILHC

Row | Structure (SMILES) | Ki [µM]
1 | COc1ccc2c(c1)N(C[C@@H](C)CN(C)C)c1ccccc1S2 | 0.015
2 | CCN(CC)CCNC(=O)c1cc(S(C)(=O)=O)ccc1OC [CAS_51012-32-9] | 0.077

Next, values leading:

Row | Ki [µM] | Structure (SMILES)
3 | 0.0024 | CCN1CCC[C@H]1CNC(=O)c1cc(S(=O)(=O)CC)ccc1OC [Sultopride]
4 | 8.79 | COc1cc2nc(N3CCN(C(=O)c4ccco4)CC3)nc(N)c2cc1OC [[3H]-Minipress]
5 | 0.158 | COC(=O)[C@@H]1[C@H]2C[C@H]3c4[nH]c5ccccc5c4CCN3C[C@@H]2CC[C@@H]1O [yohimbic acid methyl ester]
